We go through 12 compounds from ChEMBL document CHEMBL4011635 (J Med Chem, 2017).

Converted amounts (≈) assume the structure as drawn. The source made the active and inactive calls. No cut-off for these calls is given here.

Data set [1] is described as follows: Apparent permeability from basolateral to apical side in human Caco2 cells. Format: ADME, cell-based. Conditions: Caco-2. Background: Caco-2 monolayers are a common model of the intestinal barrier.
Another data set is described as follows: in vitro. Particulars: human, Caco-2.
A short description of data set [2]: Aqueous equilibrium solubility of compound in pH 6.8 solution by high throughput assay. Conditions: aqueous pH 6.8 solution. Format: physicochemical.
Data set [3] in a line: Protein binding in human plasma. In kind it is ADME, cell-free. Particulars: read-out: PPB (converted).
The target of the next data set is Complement factor D (Homo sapiens, UniProt P00746). In words: Inhibition of recombinant human complement factor D catalytic domain (G24 to A253 residues) expressed in expressed in Escherichia coli(Rosetta) using Z-Lys-thiobenzylester as substrate preincubated for 1 hr followed by substrate addition by 2,4-dinitrobenzenesulfonyl-2,7-desmethyl-fluorecein probe based spectrofluorimetric assay.

In data set [4] the test system is Cynomolgus monkey. In words: In vivo inhibition of complement factor D in cynomolgus monkey assessed as serum concentration required to show complete reduction in zymosan-induced AP activation by measuring soluble MAC complex deposition at 10 to 50 mg/kg, po administered as single dose via gavage measured at 4 to 24 hrs post dose by LC-MS analysis. In kind it is functional, Macaca fascicularis.

Data set [5] has as its target Voltage-gated inwardly rectifying potassium channel KCNH2 (Homo sapiens, UniProt Q12809).
In data set [6] the test system is Mus musculus. Kind of data set: In vivo inhibition of complement activation in B6-Cfdtm1.1(CFD)Npa mouse assessed as decrease C3d generation in eyes at 30 mg/kg, po administered via gavage treated up to 24 hrs prior to test and LPS challenge up to 7.5 hrs prior to test measured up to 12 hrs. In kind it is functional, organism-based.
The subject of data set [7] is Cynomolgus monkey. In words: In vivo inhibition of complement factor D in cynomolgus monkey assessed as decrease in zymosan-induced AP activation by measuring soluble MAC complex deposition in serum at 10 to 50 mg/kg, po administered as single dose via gavage measured 4 hrs post dose. In kind it is functional, organism-based. Particulars: Macaca fascicularis.
Another data set relates to Lymphocyte. In words: Genotoxicity in human primary lymphocytes by micronucleus test. Format: toxicity, cell-based.
Another data set has as its target Cytochrome P450 3A4 (Homo sapiens, UniProt P08684).
Data set [8] deals with Cynomolgus monkey. Kind of data set: In vivo inhibition of complement factor D in cynomolgus monkey assessed as decrease in zymosan-induced AP activation by measuring soluble MAC complex deposition in serum administered as single dose via oral gavage measured at 4 to 24 hrs post dose. Format: functional, organism-based. Particulars: Macaca fascicularis.
Data set [9] is described as follows: Drug uptake in Brown Norway rat posterior eye cup at 10 mg/kg, po administered as single dose via gavage after 6 hrs by LC-MS/MS analysis. Format: ADME, organism-based. Conditions: read-out: Drug uptake.
The test system of another data set is Salmonella typhimurium. Kind of data set: Genotoxicity in Salmonella typhimurium by Ames test. Particulars: salmonella enterica subsp. enterica serovar typhimurium. In kind it is toxicity. (In general: The Ames test detects mutagens through reverse mutation in bacteria.)
Data set [10] deals with Mus musculus. In words: In vivo inhibition of complement activation in B6-Cfdtm1.1(CFD)Npa mouse assessed as decrease iC3b generation in eyes at 30 mg/kg, po administered via gavage treated up to 24 hrs prior to test and LPS challenge up to 7.5 hrs prior to test measured up to 12 hrs. Format: functional, organism-based.
Data set [11] has as its system Mus musculus. In words: In vivo inhibition of Ba generation in plasma of B6-Cfdtm1.1(CFD)Npa mouse at 30 mg/kg, po administered via gavage treated up to 24 hrs prior to test and LPS challenge up to 7.5 hrs prior to test measured up to 8 hrs. In kind it is functional, organism-based.
The target of another data set is Cytochrome P450 2C9 (Homo sapiens, UniProt P11712).
Data set [12] can be described thus: Drug uptake in Brown Norway rat neural retina at 10 mg/kg, po administered as single dose via gavage after 6 hrs by LC-MS/MS analysis. Format: ADME, organism-based. Particulars: read-out: Drug uptake.
Data set [13] is described as follows: Drug uptake in Brown Norway rat plasma at 10 mg/kg, po administered as single dose via gavage after 6 hrs by HPLC-MS/MS analysis. Format: ADME, organism-based.
The target of a further data set is Cytochrome P450 2D6 (Homo sapiens, UniProt P10635).
Data set [14] can be described thus: Clearance in Sprague-Dawley rat at 1 mg/kg, iv administered as bolus dose by LC-MS/MS analysis. Conditions: in vivo. Format: ADME, organism-based.
A short description of data set [15]: Terminal half life in Sprague-Dawley rat at 1 mg/kg, iv administered as bolus dose by LC-MS/MS analysis. Conditions: in vivo, read-out: beta t1/2 (converted). In kind it is ADME, organism-based.
Data set [16] is described as follows: Cmax in Sprague-Dawley rat plasma at 10 mg/kg, po by LC-MS/MS analysis. Format: ADME, organism-based. Details: dose 10 mg/kg, route oral.
The nature of data set [17]: AUC (0 to 8 hrs) in Sprague-Dawley rat plasma at 10 mg/kg, po by LC-MS/MS analysis. Format: ADME, organism-based. Details: dose 10 mg/kg, time < 8 hr, route oral.
A short description of data set [18]: Oral bioavailability in Sprague-Dawley rat at 10 mg/kg by LC-MS/MS analysis. In kind it is ADME, organism-based. Conditions: in vivo.

As to `NC(=O)n1cc(NC(=O)N2[C@@H]3C[C@@H]3C[C@H]2C(=O)Nc2cccc(OC(F)(F)F)c2F)c2ccccc21`, the Papp B→A in data set [1] was 6.5 ×10⁻⁶ cm/s. This compound yielded a Papp A→B in “in vitro” of 5.1 ×10⁻⁶ cm/s. This compound also yielded a thermodynamic solubility in [2] of 10 µM (≈ 5.05 µg/mL).
In the case of `NC(=O)n1cc(NC(=O)N2[C@@H]3C[C@@H]3C[C@H]2C(=O)Nc2cccc(C(F)(F)F)c2F)c2ccccc21`, in [1], the Papp B→A worked out at 7 ×10⁻⁶ cm/s. Also, the fraction unbound in data set [3] is less than 0.01. The Papp A→B in “in vitro” was 10 ×10⁻⁶ cm/s. The compound further gave a solubility (thermodynamic) in data set [2] of 46 µM (≈ 22.5 µg/mL).
Consider `NC(=O)n1cc(NC(=O)N2[C@@H]3C[C@@H]3C[C@H]2C(=O)Nc2cccc(OC(F)(F)F)c2)c2ccccc21`, for which the Papp B→A in data set [1] was 5.7 ×10⁻⁶ cm/s. In addition, in the data set “in vitro”, the Papp A→B is 4.5 ×10⁻⁶ cm/s. Further, in data set [2], the thermodynamic solubility amounted to 77 µM (≈ 37.5 µg/mL).
In the case of `Cn1cc(NC(=O)N2CCC[C@H]2C(=O)Nc2cccc(OC(F)(F)F)c2)c2ccccc21`, the IC50 at Complement factor D is 20 µM.
Take `NC(=O)n1cc(NC(=O)N2C[C@H](F)C[C@H]2C(=O)Nc2cccc(OC(F)(F)F)c2)c2ccccc21`: the Papp B→A in [1] was determined as 8 ×10⁻⁶ cm/s. The Papp A→B in the data set “in vitro” came out at 0.75 ×10⁻⁶ cm/s. The compound also gave a thermodynamic solubility in [2] of 7 µM (≈ 3.45 µg/mL).
For `NC(=O)n1cc(NC(=O)N2C[C@@H](O)C[C@H]2C(=O)Nc2cccc(OC(F)(F)F)c2)c2ccccc21` the same measures were 17 ×10⁻⁶ cm/s, 0.77 ×10⁻⁶ cm/s and 23 µM (≈ 11.3 µg/mL).
Take `NC(=O)c1nn(CC(=O)N2[C@@H]3C[C@@H]3C[C@H]2C(=O)Nc2cccc(Br)n2)c2ccccc12`: the INH in the data set with Cynomolgus monkey [4] was more than 0.5 µM. The Papp B→A in data set [1] was 18.1 ×10⁻⁶ cm/s. Also, the IC50 was more than 30 µM in data set [5], 17 µM on Cytochrome P450 3A4, more than 20 µM against Cytochrome P450 2C9 and more than 20 µM on Cytochrome P450 2D6. In addition, the inhibition entry in the data set on Mus musculus [6], in the data set with Cynomolgus monkey [7], with Mus musculus [10] and in the data set on Mus musculus [11] was “Active” each time. The Activity result with Lymphocyte and with Salmonella typhimurium was “Non-Toxic” each time. For the same compound, in data set [3], the fraction unbound was 0.08. Moreover, the EC50 in the data set on Cynomolgus monkey [8] worked out at 0.038 µM. The concentration at 6 h in [9] stood at 430 nM; in data set [12], 90 nM; in [13], 360 nM. In addition, the Papp A→B in “in vitro” was determined as 15.3 ×10⁻⁶ cm/s. Moreover, the thermodynamic solubility in [2] amounted to 170 µM (≈ 82.2 µg/mL).
Consider `NC(=O)n1cc(NC(=O)N2[C@@H]3C[C@@H]3C[C@H]2C(=O)Nc2cccc(Br)n2)c2ccccc21`, for which the Papp B→A in data set [1] stood at 10.3 ×10⁻⁶ cm/s. In addition, the fraction unbound in data set [3] was 0.036. Moreover, the Papp A→B in “in vitro” is 9.6 ×10⁻⁶ cm/s. The compound also came in with a solubility (thermodynamic) in data set [2] of 57 µM (≈ 27.5 µg/mL).
For the compound `NC(=O)n1cc(NC(=O)N2CCC[C@H]2C(=O)Nc2cccc(OC(F)(F)F)c2)c2ccccc21`, the Papp B→A in data set [1] worked out at 6.3 ×10⁻⁶ cm/s. Also, the clearance in data set [14] is 21 mL/min/kg. In addition, the half-life in data set [15] was 1.4 h. The Activity result with Lymphocyte and with Salmonella typhimurium was “Non-Toxic” throughout. Further, the concentration in data set [16] peaked (Cmax) at 1170 nM. Moreover, the AUC(0-t) at 8 h in data set [17] was 4.99 µM·h. Besides, the Papp A→B in the data set “in vitro” turned out to be 6.1 ×10⁻⁶ cm/s. The compound also showed a bioavailability in data set [18] of 25%. In [2], this compound gave a thermodynamic solubility of 17 µM (≈ 8.08 µg/mL).
`NC(=O)n1cc(NC(=O)N2C[C@@H](N)C[C@H]2C(=O)Nc2cccc(OC(F)(F)F)c2)c2ccccc21`: the Papp B→A in data set [1] was 5.1 ×10⁻⁶ cm/s. The compound also returned a Papp A→B in “in vitro” of 2.1 ×10⁻⁶ cm/s. Further, the solubility (thermodynamic) in [2] was 280 µM (≈ 137 µg/mL).
Regarding `NC(=O)n1cc(NC(=O)N2[C@@H]3C[C@@H]3C[C@H]2C(=O)Nc2cccc(C(F)(F)F)n2)c2ccccc21`, in data set [1], the Papp B→A amounted to 14.2 ×10⁻⁶ cm/s. For the same compound, the fraction unbound in data set [3] was 0.048. In “in vitro”, this compound registered a Papp A→B of 11.3 ×10⁻⁶ cm/s. Moreover, in data set [2], the solubility (thermodynamic) worked out at 110 µM (≈ 52 µg/mL).
Turning to `NC(=O)c1cn(CC(=O)N2[C@@H]3C[C@@H]3C[C@H]2C(=O)Nc2cccc(Br)n2)c2ccccc12`, the fraction unbound in [3] is 0.131.

Broadly, the Papp B→A is the apparent permeability from the basolateral to the apical side of a cell layer. In general, Papp A→B refers to how fast a substance crosses the layer from the apical side. A word on the solubility (thermodynamic): it is solubility found after equilibrating the solid with the medium. Usually IC50 stands for the point on the concentration scale where inhibition reaches its midpoint. One may read the EC50 as the concentration giving half of the maximal effect. One may read the clearance as the volume of plasma or blood freed of the substance per unit of time. The Cmax is the highest concentration seen after dosing. The AUC(0-t) is exposure summed from dosing to a finite time, without extrapolation to infinity. The term bioavailability denotes the share of a dose that reaches the circulation, judged against a reference dose that is usually intravenous.
